Reference: patent US20240148821A1, “PHARMACEUTICAL USE OF CYCLIC PEPTIDE COMPOUND” (CHUGAI SEIYAKU KABUSHIKI KAISHA, priority 2021, published 2024)
pIC50: −log10 of the molar value. Numbered stars: 1 amine (or outer) side, 2 acyl side, 3 side chain; on linkers, the order of the positions; unused ones are H or OH. Bridge positions count the residues as written; N and C are the ends. Square brackets hold non-standard residues; d marks the D form. Peptide text beside a SMILES is read from it. * marks the point of attachment. hPhe(3-Cl-4-CF3) = N[C@@H](CCc1ccc(C(F)(F)F)c(Cl)c1)C(=O)O; hPhe(3-F,4-CF3) = N[C@@H](CCc1ccc(C(F)(F)F)c(F)c1)C(=O)O; X49 = CN([C@@H](Cc1cccc(OC(F)(F)F)c1)C(=O)[*:2])[*:1]; X52 = CN([C@@H](Cc1ccccc1OC(F)(F)F)C(=O)[*:2])[*:1]; NMePhe(4-Cl) = CN[C@@H](Cc1ccc(Cl)cc1)C(=O)O; X51 = CN([C@@](C)(Cc1ccccc1)C(=O)[*:2])[*:1]; NMePhe(3-Me) = CN[C@@H](Cc1cccc(C)c1)C(=O)O; NMePhe(3-F) = CN[C@@H](Cc1cccc(F)c1)C(=O)O; NMePhe(4-F) = CN[C@@H](Cc1ccc(F)cc1)C(=O)O; NMeGly(cPent) = CN[C@H](C(=O)O)C1CCCC1; Phe(3-I) = N[C@@H](Cc1cccc(I)c1)C(=O)O; dβ3hPip = O=C(C[C@H]1CCCCN1[*:1])[*:2]; NMeY = CN[C@@H](Cc1ccc(O)cc1)C(=O)O; NMeCha = CN[C@@H](CC1CCCCC1)C(=O)O; NMeChg = CN[C@H](C(=O)O)C1CCCCC1; NMeD = CN[C@@H](CC(=O)O)C(=O)O; NMeL = CN[C@@H](CC(C)C)C(=O)O; NMehSer = CN[C@@H](CCO)C(=O)O; NPrAla = CCCN[C@@H](C)C(=O)O; NMeV = CN[C@H](C(=O)O)C(C)C; d(β3hA) = C[C@@H](N)CC(=O)O; Iva = CC[C@](C)(N)C(=O)O; NMeA = CN[C@@H](C)C(=O)O; Nle = CCCC[C@H](N)C(=O)O; Piperidide = C1CCN(*)CC1; dNMeA = CN[C@H](C)C(=O)O; Ac5c = NC1(C(=O)O)CCCC1; Aze = O=C(O)[C@@H]1CCN1; Ac4c = NC1(C(=O)O)CCC1; NBuGly = CCCCNCC(=O)O; NPrGly = CCCNCC(=O)O; Sar = CNCC(=O)O

test system: Human pancreatic cancer cell line AsPC-1 (G12D mutation Kras); experiment: AsPC-1 cell growth inhibition (AsPC-1 CGI); type: cell-based; settings: read-out: AsPC-1 cell growth inhibition, 50% growth inhibitory concentration (IC50 value); 96 hours, CellTiter-Glo, values classified in ranges
Description: Test compounds were serially dilated with dimethyl sulfoxide, and 200 nL was then dispensed to a U-bottom 96-well plate using Labcyte Echo. […] The cell suspension was dispensed to a. plate containing a test compound at 100 μL per well and incubated at 37° C. in a 5% carbon dioxide gas incubator. 96 hours later, 80 μL of CellTiter-Glo (Promega) was added to each well and fluorescence was measured.

Compound | pIC50
CC[C@H](C)[C@@H]1NC(=O)[C@H](CC(C)C)N(C)C(=O)C[C@@H](C(=O)N(C)C)N(C)C(=O)[C@H](C2CCCC2)N(C)C(=O)C2(CCCC2)NC(=O)[C@H](Cc2cccc(F)c2)N(C)C(=O)[C@H](CCc2ccc(C(F)(F)F)c(Cl)c2)NC(=O)CN(C)C(=O)[C@H](CC2CCCCC2)N(C)C(=O)[C@@H]2CCN2C(=O)[C@H](C)N(C)C1=O [Compound 95] ([NMeL]I[NMeA][Aze][NMeCha][Sar][hPhe(3-Cl-4-CF3)][NMePhe(3-F)][Ac5c][NMeGly(cPent)][NMeD]-NMe2; lactam N-11) | < 6.30
CC[C@H](C)[C@@H]1NC(=O)[C@H](CC(C)C)N(C)C(=O)C[C@@H](C(=O)N(C)C)N(C)C(=O)[C@H](C2CCCC2)N(C)C(=O)[C@H](C(C)C)NC(=O)[C@H](C)N(C)C(=O)[C@H](CCc2ccc(C(F)(F)F)c(Cl)c2)NC(=O)CN(C)C(=O)[C@H](CC2CCCCC2)N(C)C(=O)[C@@H]2CCN2C(=O)[C@H](C)N(C)C1=O [Compound 102] ([NMeL]I[NMeA][Aze][NMeCha][Sar][hPhe(3-Cl-4-CF3)][NMeA]V[NMeGly(cPent)][NMeD]-NMe2; lactam N-11) | < 6.30
CC[C@H](C)[C@@H]1NC(=O)[C@H](C)N(C)C(=O)C[C@@H](C)NC(=O)[C@H](C2CCCC2)N(C)C(=O)C2(CCCC2)NC(=O)[C@@H]2CCCN2C(=O)[C@H](CCc2ccc(C(F)(F)F)c(Cl)c2)NC(=O)[C@@H](C)N(C)C(=O)[C@H](C(C)C)N(C)C(=O)CN(C)C(=O)CN(C)C1=O [Compound 109] (cyclo([Ac5c][NMeGly(cPent)][d(β3hA)][NMeA]I[Sar][Sar][NMeV][dNMeA][hPhe(3-Cl-4-CF3)]P)) | < 6.30
CCCC[C@@H]1NC(=O)[C@H](Cc2cccc(I)c2)NC(=O)CN(C)C(=O)[C@H](Cc2ccc(Cl)cc2)N(C)C(=O)CN(C)C(=O)CN(C)C(=O)[C@H]([C@@H](C)CC)NC(=O)[C@H](CC(C)C)N(C)C(=O)C[C@@H](C(=O)N2CCCCC2)N(C)C(=O)[C@H](CC(C)C)NC(=O)[C@H](Cc2ccccc2OC(F)(F)F)N(C)C1=O [Compound 111] ([NMeL]I[Sar][Sar][NMePhe(4-Cl)][Sar][Phe(3-I)][Nle][X52]L[NMeD]-Piperidide; lactam N-11) | < 6.30
CCCN1C(=O)C[C@@H](C)NC(=O)[C@H](C(C)C)N(C)C(=O)C2(CCCC2)NC(=O)[C@@H]2CCCN2C(=O)[C@H](CCc2ccc(C(F)(F)F)c(Cl)c2)NC(=O)CN(C)C(=O)[C@H](CC2CCCCC2)N(C)C(=O)CN(C)C(=O)CN(C)C(=O)[C@H]([C@@H](C)CC)NC(=O)[C@@H]1C [Compound 114] (cyclo([Ac5c][NMeV][d(β3hA)][NPrAla]I[Sar][Sar][NMeCha][Sar][hPhe(3-Cl-4-CF3)]P)) | < 6.30
CCCN1CC(=O)N(C)CC(=O)N(C)[C@@H](CC2CCCCC2)C(=O)N(C)CC(=O)N[C@@H](CCc2ccc(C(F)(F)F)c(Cl)c2)C(=O)N2CCC[C@H]2C(=O)NC2(CCCC2)C(=O)N(C)[C@@H](C(C)C)C(=O)N[C@H](C)CC(=O)N(C)[C@@H](CC(C)C)C(=O)N[C@@H]([C@@H](C)CC)C1=O [Compound 116] (cyclo([Ac5c][NMeV][d(β3hA)][NMeL]I[NPrGly][Sar][NMeCha][Sar][hPhe(3-Cl-4-CF3)]P)) | < 6.30
CC[C@H](C)[C@@H]1NC(=O)[C@H](C)N(C)C(=O)C[C@@H](C)NC(=O)[C@H](C2CCCC2)N(C)C(=O)C2(CCCC2)NC(=O)[C@@H]2CCCN2C(=O)[C@H](CCc2ccc(C(F)(F)F)c(Cl)c2)NC(=O)[C@@H](C)N(C)C(=O)[C@H](Cc2cccc(C)c2)N(C)C(=O)[C@@H]2CCN2C(=O)[C@H](C)N(C)C1=O [Compound 117] (cyclo([Ac5c][NMeGly(cPent)][d(β3hA)][NMeA]I[NMeA][Aze][NMePhe(3-Me)][dNMeA][hPhe(3-Cl-4-CF3)]P)) | < 6.30
CCCCN1CC(=O)N(C)CC(=O)N(C)[C@@H](CC2CCCCC2)C(=O)N(C)CC(=O)N[C@@H](CCc2ccc(C(F)(F)F)c(Cl)c2)C(=O)N2CCC[C@H]2C(=O)NC2(CCCC2)C(=O)N(C)[C@@H](C(C)C)C(=O)N[C@H](C)CC(=O)N(C)[C@@H](CC(C)C)C(=O)N[C@@H]([C@@H](C)CC)C1=O [Compound 123] (cyclo([Ac5c][NMeV][d(β3hA)][NMeL]I[NBuGly][Sar][NMeCha][Sar][hPhe(3-Cl-4-CF3)]P)) | < 6.30
CCCC[C@@H]1NC(=O)[C@H](Cc2cccc(I)c2)NC(=O)CN(C)C(=O)[C@H](Cc2ccc(OC)cc2)N(C)C(=O)CN(C)C(=O)CN(C)C(=O)[C@H]([C@@H](C)CC)NC(=O)[C@H](CC(C)C)N(C)C(=O)C[C@@H](C(=O)N2CCCCC2)N(C)C(=O)[C@H](CC(C)C)NC(=O)[C@](C)(Cc2ccccc2)N(C)C1=O [Compound 125] ([NMeL]I[Sar][Sar][NMeY](Me)[Sar][Phe(3-I)][Nle][X51]L[NMeD]-Piperidide; lactam N-11) | < 6.30
CC[C@H](C)[C@@H]1NC(=O)[C@H](CC(C)C)N(C)C(=O)C[C@@H](C)NC(=O)[C@H](CC(C)C)N(C)C(=O)C2(CCC2)NC(=O)[C@@H]2CCCN2C(=O)[C@H](CCc2ccc(C(F)(F)F)c(F)c2)NC(=O)CN(C)C(=O)[C@H](CC2CCCCC2)N(C)C(=O)CN(C)C(=O)CN(C)C1=O [Compound 133] (cyclo([Ac4c][NMeL][d(β3hA)][NMeL]I[Sar][Sar][NMeCha][Sar][hPhe(3-F,4-CF3)]P)) | < 6.30
CC[C@H](C)[C@@H]1NC(=O)[C@H](C)N(C)C(=O)C[C@@H](C(=O)N2CCCCC2)N(C)C(=O)[C@H](C(C)C)N(C)C(=O)C2(CCCC2)NC(=O)[C@@H]2CCCN2C(=O)[C@H](CCc2ccc(C(F)(F)F)c(Cl)c2)NC(=O)[C@H]2CCCN2C(=O)[C@H](CC2CCCCC2)N(C)C(=O)CN(C)C(=O)CN(C)C1=O [Compound 135] ([NMeA]I[Sar][Sar][NMeCha][dP][hPhe(3-Cl-4-CF3)]P[Ac5c][NMeV][NMeD]-Piperidide; lactam N-11) | < 6.30
CC[C@H](C)[C@@H]1NC(=O)[C@H](CC(C)C)N(C)C(=O)C[C@@H](C(=O)N2CCCCC2)N(C)C(=O)[C@H](CCOC)N(C)C(=O)C2(CCCC2)NC(=O)[C@@H]2CCCN2C(=O)[C@H](CCc2ccc(C(F)(F)F)c(Cl)c2)NC(=O)CN(C)C(=O)[C@H](CC2CCCCC2)N(C)C(=O)[C@@H]2CCN2C(=O)[C@H](C)N(C)C1=O [Compound 141] ([NMeL]I[NMeA][Aze][NMeCha][Sar][hPhe(3-Cl-4-CF3)]P[Ac5c][NMehSer](Me)[NMeD]-Piperidide; lactam N-11) | < 6.30
CC[C@H](C)[C@@H]1NC(=O)[C@H](CC(C)C)N(C)C(=O)C[C@H]2CCCCN2C(=O)[C@H](C(C)C)N(C)C(=O)C2(CCCC2)NC(=O)[C@@H]2CCCN2C(=O)[C@H](CCc2ccc(C(F)(F)F)c(F)c2)NC(=O)CN(C)C(=O)[C@H](CC2CCCCC2)N(C)C(=O)CN(C)C(=O)CN(C)C1=O [Compound 142] (cyclo([Ac5c][NMeV][dβ3hPip][NMeL]I[Sar][Sar][NMeCha][Sar][hPhe(3-F,4-CF3)]P)) | < 6.30
CCCC[C@@H]1NC(=O)[C@H](Cc2cccc(I)c2)NC(=O)CN(C)C(=O)[C@H](Cc2ccc(Cl)cc2)N(C)C(=O)CN(C)C(=O)CN(C)C(=O)[C@H]([C@@H](C)CC)NC(=O)[C@H](CC(C)C)N(C)C(=O)C[C@@H](C(=O)N2CCCCC2)N(C)C(=O)[C@H](CC(C)C)NC(=O)[C@H](Cc2cccc(OC(F)(F)F)c2)N(C)C1=O [Compound 143] ([NMeL]I[Sar][Sar][NMePhe(4-Cl)][Sar][Phe(3-I)][Nle][X49]L[NMeD]-Piperidide; lactam N-11) | < 6.30
CC[C@H](C)[C@@H]1NC(=O)[C@H](C)N(C)C(=O)C[C@@H](C)NC(=O)[C@H](C2CCCC2)N(C)C(=O)C2(CCCC2)NC(=O)[C@@H]2CCCN2C(=O)[C@H](CCc2ccc(C(F)(F)F)c(Cl)c2)NC(=O)CN(C)C(=O)[C@H](Cc2ccc(F)cc2)N(C)C(=O)[C@@H]2CCCN2C(=O)CN(C)C1=O [Compound 146] (cyclo([Ac5c][NMeGly(cPent)][d(β3hA)][NMeA]I[Sar]P[NMePhe(4-F)][Sar][hPhe(3-Cl-4-CF3)]P)) | < 6.30
COC[C@@H]1NC(=O)[C@H](CC(C)C)N(C)C(=O)C[C@@H](C(=O)N2CCCCC2)N(C)C(=O)[C@H](C2CCCCC2)N(C)C(=O)C2(CCCC2)NC(=O)[C@@H]2CCCN2C(=O)[C@H](CCc2ccc(C(F)(F)F)c(Cl)c2)NC(=O)CN(C)C(=O)[C@H](CC2CCCCC2)N(C)C(=O)CN(C)C(=O)CN(C)C1=O [Compound 148] ([NMeL]S(Me)[Sar][Sar][NMeCha][Sar][hPhe(3-Cl-4-CF3)]P[Ac5c][NMeChg][NMeD]-Piperidide; lactam N-11) | < 6.30
CC[C@H](C)[C@@H]1NC(=O)[C@H](CC(C)C)N(C)C(=O)C[C@@H](C)NC(=O)[C@H](C(C)C)N(C)C(=O)[C@](C)(CC)NC(=O)[C@@H]2CCCN2C(=O)[C@H](CCc2ccc(C(F)(F)F)c(Cl)c2)NC(=O)CN(C)C(=O)[C@H](CC2CCCCC2)N(C)C(=O)CN(C)C(=O)CN(C)C1=O [Compound 149] (cyclo(I[Sar][Sar][NMeCha][Sar][hPhe(3-Cl-4-CF3)]P[Iva][NMeV][d(β3hA)][NMeL])) | < 6.30
CC[C@H](C)[C@@H]1NC(=O)[C@H](C(C)C)N(C)C(=O)C[C@@H](C)NC(=O)[C@H](CC(C)C)N(C)C(=O)C2(CCCC2)NC(=O)[C@H](CC(C)C)N(C)C(=O)[C@H](CCc2ccc(C(F)(F)F)c(Cl)c2)NC(=O)CN(C)C(=O)[C@H](Cc2ccc(Cl)cc2)N(C)C(=O)[C@@H]2CCN2C(=O)CN(C)C1=O [Compound 158] (cyclo([Ac5c][NMeL][d(β3hA)][NMeV]I[Sar][Aze][NMePhe(4-Cl)][Sar][hPhe(3-Cl-4-CF3)][NMeL])) | < 6.30
CC[C@H](C)[C@@H]1NC(=O)[C@H](CC(C)C)N(C)C(=O)C[C@@H](C(=O)N2CCCCC2)N(C)C(=O)[C@H](C2CCCCC2)N(C)C(=O)C2(CCCC2)NC(=O)[C@@H]2CCCN2C(=O)[C@H](CCc2ccc(C(F)(F)F)c(Cl)c2)NC(=O)CN(C)C(=O)[C@H](CCOC)N(C)C(=O)CN(C)C(=O)CN(C)C1=O [Compound 159] ([NMeL]I[Sar][Sar][NMehSer](Me)[Sar][hPhe(3-Cl-4-CF3)]P[Ac5c][NMeChg][NMeD]-Piperidide; lactam N-11) | < 6.30
